# Reference: patent US20250136606A1, “MODULATORS OF TRPML, THEIR COMPOSITIONS AND METHODS OF USE” (Caraway Therapeutics, Inc., priority 2021, published 2025)
# Like-named read-outs stand apart in the source and are kept apart here.
# Assays:
# TRPML1 [1] = conditions: cited from earlier work
# TRPML1 [2] = biological target: TRPML1 (Homo sapiens, UniProt Q9GZU1); experiment: Fluorescent TRPML1 assay (Fluo4-AM calcium fluorescence in doxycycline-induced HEK-293 Trex cells); format: cell-based
# Outline: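 EC50 values come from non-linear regression of percent activity, normalized to on-plate positive and negative controls, with fluorescence read at 480 nm excitation and 540 nm emission. Fluo4-AM-loaded (1 µM) doxycycline-induced HEK-293 Trex cells expressing mutated human TRPML1 were exposed in 10 mM calcium Ringer's to 6 nM–20 µM compound, in triplicate.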
# TRPML2 = biological target: T1, TRPML2 (Homo sapiens, UniProt Q8IZK6); experiment: Fluorescent TRPML2 assay (performed as for TRPML1, substituting the TRPML2 subtype); format: cell-based
# T1 construct: expressed in transfected cells
# T1 sequence (Q8IZK6 1-566): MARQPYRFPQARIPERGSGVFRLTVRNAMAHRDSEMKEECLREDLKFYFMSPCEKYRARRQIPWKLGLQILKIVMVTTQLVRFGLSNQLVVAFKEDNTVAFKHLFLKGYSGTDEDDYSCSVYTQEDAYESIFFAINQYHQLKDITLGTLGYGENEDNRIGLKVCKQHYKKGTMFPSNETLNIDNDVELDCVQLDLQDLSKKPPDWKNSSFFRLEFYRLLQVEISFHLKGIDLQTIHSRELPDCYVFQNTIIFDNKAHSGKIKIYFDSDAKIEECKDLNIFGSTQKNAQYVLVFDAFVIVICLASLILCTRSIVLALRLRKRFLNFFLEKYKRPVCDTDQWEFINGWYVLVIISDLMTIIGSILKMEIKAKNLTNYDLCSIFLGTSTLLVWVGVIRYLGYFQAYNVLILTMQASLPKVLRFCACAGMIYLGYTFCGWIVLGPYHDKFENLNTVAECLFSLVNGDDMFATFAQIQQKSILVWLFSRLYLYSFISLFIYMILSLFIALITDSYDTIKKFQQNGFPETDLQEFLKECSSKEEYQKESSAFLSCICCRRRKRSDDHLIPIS
# Outline: (§1)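 HEK-293 Trex, dox-induced (0.5 ug/mL), mutated for surface expression. Fluo4-AM 1 micromolar load ~60 min, dark; buffer modified Ringer's, 10 mM Ca. Cpds 20 micromolar–6 nanomolar final, half-log, n=3. Read ex 480/em 540; % activity vs controls; EC50 nonlinear fit.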
# TRPML3 = biological target: T2, TRPML3 (Homo sapiens, UniProt Q8TDD5); experiment: Fluorescent TRPML3 assay (performed as for TRPML1, substituting the TRPML3 subtype); format: cell-based
# T2 construct: expressed in transfected cells
# T2 sequence (Q8TDD5 1-553): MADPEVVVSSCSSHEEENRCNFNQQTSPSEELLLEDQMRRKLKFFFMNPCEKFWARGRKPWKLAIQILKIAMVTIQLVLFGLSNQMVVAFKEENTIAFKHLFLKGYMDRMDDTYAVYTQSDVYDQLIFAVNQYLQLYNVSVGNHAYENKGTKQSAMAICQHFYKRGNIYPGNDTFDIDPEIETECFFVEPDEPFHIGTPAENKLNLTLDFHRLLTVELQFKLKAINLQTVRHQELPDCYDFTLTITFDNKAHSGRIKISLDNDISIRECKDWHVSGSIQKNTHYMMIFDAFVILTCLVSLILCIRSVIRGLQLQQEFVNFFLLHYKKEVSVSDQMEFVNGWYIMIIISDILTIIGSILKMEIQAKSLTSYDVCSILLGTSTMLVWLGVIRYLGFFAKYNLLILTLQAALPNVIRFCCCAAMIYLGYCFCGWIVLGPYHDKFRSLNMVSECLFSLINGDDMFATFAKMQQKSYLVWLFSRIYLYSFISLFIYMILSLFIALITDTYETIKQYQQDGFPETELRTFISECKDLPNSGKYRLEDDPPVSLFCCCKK
# Outline: as §1
# Sequence of TRPML1 (Homo sapiens, UniProt Q9GZU1) (Q9GZU1 whole entry L15A/L16A/L577A/L578A, form open): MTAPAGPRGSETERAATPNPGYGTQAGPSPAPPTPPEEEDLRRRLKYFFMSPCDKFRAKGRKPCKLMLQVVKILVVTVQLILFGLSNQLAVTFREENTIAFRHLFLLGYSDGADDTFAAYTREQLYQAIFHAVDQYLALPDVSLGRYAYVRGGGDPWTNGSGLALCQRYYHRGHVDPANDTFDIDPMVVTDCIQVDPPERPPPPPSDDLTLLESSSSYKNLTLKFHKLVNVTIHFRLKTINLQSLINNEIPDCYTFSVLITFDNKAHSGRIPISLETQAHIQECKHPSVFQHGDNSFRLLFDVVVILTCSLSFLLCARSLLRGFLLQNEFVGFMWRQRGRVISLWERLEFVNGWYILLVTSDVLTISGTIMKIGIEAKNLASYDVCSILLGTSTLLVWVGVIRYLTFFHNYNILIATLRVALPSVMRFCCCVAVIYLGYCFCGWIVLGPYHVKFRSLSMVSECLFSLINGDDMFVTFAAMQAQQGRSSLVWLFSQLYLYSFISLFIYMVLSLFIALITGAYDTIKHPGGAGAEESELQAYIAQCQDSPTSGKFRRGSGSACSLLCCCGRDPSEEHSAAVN
molecule,measurement,setting,value
ML-SA1,[Ca2+] increases,TRPML1 [1]; HEK293 cells stably or transiently expressing TRPML1 with its lysosomal targeting sequence deleted,significant [Ca2+] increases
same,concentration needed to effectively activate TRPMLs,"TRPML1 [1]; TRPMLs, high concentrations needed",~10 µM
"Cc1cncc(-n2cc(C3CC3)c3c(N4CCN(C(=O)OC(C)(C)C)[C@@H](C)C4)ncnc32)c1 (single isomer, unassigned) [Compound 174]",EC50,TRPML1 [2]; fluorescent calcium assay,0.1 to 0.5 µM
same,EC50,TRPML2; fluorescent calcium assay,0.5 to 2 µM
same,EC50,TRPML3; fluorescent calcium assay,0.1 to 0.5 µM
"CC(C)(C)OC(=O)N1CCN(c2ncnc3c2c(C2CC2)cn3-c2ccc(F)c(F)c2)CC1 [Compound 113, tert-butyl 4-(5-cyclopropyl-7-(3,4-difluorophenyl)-7H-pyrrolo[2,3-d]pyrimidin-4-yl)piperazine-1-carboxylate]",EC50,TRPML1 [2]; fluorescent calcium assay,< 0.1 µM
same,EC50,TRPML2; fluorescent calcium assay,0.5 to 2 µM
same,EC50,TRPML3; fluorescent calcium assay,0.1 to 0.5 µM
"C[C@H]1CN(C(=O)OC(C)(C)C)CCN1c1ncnc2c1c(-c1ccccc1F)cn2-c1cc(C#N)cnn1 [Compound 447, tert-butyl (S)-4-(7-(5-cyanopyridazin-3-yl)-5-(2-fluorophenyl)-7H-pyrrolo[2,3-d]pyrimidin-4-yl)-3-methylpiperazine-1-carboxylate]",EC50,TRPML1 [2]; fluorescent calcium assay,< 0.1 µM
same,EC50,TRPML2; fluorescent calcium assay,< 0.1 µM
same,EC50,TRPML3; fluorescent calcium assay,< 0.1 µM
C[C@H]1CN(C(=O)OC(C)(C)C)CCN1c1ncnc2c1c(C1CC1)cn2-c1cncc(C#N)c1 [Compound 259],EC50,TRPML1 [2]; fluorescent calcium assay,0.1 to 0.5 µM
same,EC50,TRPML2; fluorescent calcium assay,0.5 to 2 µM
same,EC50,TRPML3; fluorescent calcium assay,0.1 to 0.5 µM
"C[C@H]1CN(C(=O)OC(C)(C)C)CCN1c1ncnc2c1c(-c1cccnc1)cn2-c1cccc(Cl)c1 [Compound 225, tert-butyl (S)-4-(7-(3-chlorophenyl)-5-(pyridin-3-yl)-7H-pyrrolo[2,3-d]pyrimidin-4-yl)-3-methylpiperazine-1-carboxylate]",EC50,TRPML1 [2]; fluorescent calcium assay,< 0.1 µM
same,EC50,TRPML2; fluorescent calcium assay,0.1 to 0.5 µM
same,EC50,TRPML3; fluorescent calcium assay,< 0.1 µM
"C[C@H]1CN(C(=O)OC(C)(C)C)CCN1c1ncnc2c1c(-c1ccccc1F)cn2-c1ccccn1 [Compound 231, tert-butyl (S)-4-(5-(2-fluorophenyl)-7-(pyridin-2-yl)-7H-pyrrolo[2,3-d]pyrimidin-4-yl)-3-methylpiperazine-1-carboxylate]",EC50,TRPML1 [2]; fluorescent calcium assay,< 0.1 µM
same,EC50,TRPML2; fluorescent calcium assay,0.1 to 0.5 µM
same,EC50,TRPML3; fluorescent calcium assay,< 0.1 µM
"CC(C)(C)OC(=O)N1CCN(c2ncnc3c2c(C2CC2)cn3-c2cc(C#N)ccn2)C2(CC2)C1 [Compound 429, tert-butyl 4-(7-(4-cyanopyridin-2-yl)-5-cyclopropyl-7H-pyrrolo[2,3-d]pyrimidin-4-yl)-4,7-diazaspiro[2.5]octane-7-carboxylate]",EC50,TRPML1 [2]; fluorescent calcium assay,< 0.1 µM
same,EC50,TRPML2; fluorescent calcium assay,< 0.1 µM
same,EC50,TRPML3; fluorescent calcium assay,< 0.1 µM
"C[C@@H]1CN(c2ncnc3c2c(C2CC2)cn3-c2ccccn2)[C@@H](C)CN1C(=O)OC(C)(C)C [Compound 643, tert-butyl (2R,5S)-4-(5-cyclopropyl-7-(pyridin-2-yl)-7H-pyrrolo[2,3-d]pyrimidin-4-yl)-2,5-dimethylpiperazine-1-carboxylate]",EC50,TRPML1 [2],0.1 to 0.5 µM
same,EC50,TRPML2,0.5 to 2 µM
same,EC50,TRPML3,0.1 to 0.5 µM
